Activity calls are given as the source filed them. The rule behind the calls is not given here. Bounds are passed on as bounds.

A word on the GI50: it is the concentration at which growth is held to half of that of the control. A word on the pKa: it is the negative logarithm of the acid dissociation constant. Low values mean a stronger acid or weaker base, high ones a weaker acid or stronger base.

The test system of one data set is HT-1080. The experiment in a line: Cytocidal activity against human HT1080 cells assessed as growth inhibition after 48 hrs by SRB assay. Type of data set: functional. Particulars: HT-1080, 48 h. For orientation: In SRB staining, fixed cells bind dye roughly in proportion to their protein.
Another data set concerns MCF7. The experiment in a line: Cytocidal activity against human MCF7 cells assessed as growth inhibition after 48 hrs by SRB assay. Type of data set: functional. The conditions noted are these: MCF7, 48 h.
For a further data set, the system named is HT-29. The experiment in a line: Cytocidal activity against human HT-29 cells assessed as growth inhibition after 48 hrs by SRB assay. Particulars: HT-29, 48 h. Type of data set: functional.
The subject of another data set is M21. The experiment in a line: Cytocidal activity against human M21 cells assessed as growth inhibition after 48 hrs by SRB assay. In kind it is functional. Particulars: M21, 48 h.
Data set [1] deals with T1, DNA topoisomerase 1 (Homo sapiens) (UniProt P11387).
T1 sequence (whole entry): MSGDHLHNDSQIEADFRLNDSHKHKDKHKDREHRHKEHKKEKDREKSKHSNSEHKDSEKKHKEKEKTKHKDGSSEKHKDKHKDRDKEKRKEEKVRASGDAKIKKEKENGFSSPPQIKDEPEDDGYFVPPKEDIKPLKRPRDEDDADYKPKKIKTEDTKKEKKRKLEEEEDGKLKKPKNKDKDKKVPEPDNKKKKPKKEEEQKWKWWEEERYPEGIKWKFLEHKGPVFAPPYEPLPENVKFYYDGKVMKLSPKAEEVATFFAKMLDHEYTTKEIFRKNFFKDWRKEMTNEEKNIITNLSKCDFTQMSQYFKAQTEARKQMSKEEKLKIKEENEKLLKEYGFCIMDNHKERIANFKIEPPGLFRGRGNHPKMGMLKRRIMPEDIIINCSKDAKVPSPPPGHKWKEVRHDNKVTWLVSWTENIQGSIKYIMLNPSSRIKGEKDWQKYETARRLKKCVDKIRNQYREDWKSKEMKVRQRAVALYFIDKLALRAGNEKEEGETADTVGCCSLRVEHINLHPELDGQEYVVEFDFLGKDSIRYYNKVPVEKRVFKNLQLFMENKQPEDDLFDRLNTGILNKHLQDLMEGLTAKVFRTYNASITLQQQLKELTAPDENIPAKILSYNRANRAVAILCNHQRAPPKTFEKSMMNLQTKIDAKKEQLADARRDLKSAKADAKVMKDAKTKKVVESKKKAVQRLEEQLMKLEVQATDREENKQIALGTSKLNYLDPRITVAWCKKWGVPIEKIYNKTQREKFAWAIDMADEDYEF
Nature of the data set: Inhibition of recombinant human topoisomerase 1-mediated unwinding of supercoiled plasmid DNA assessed as DNA intercalation at 12.5 to 100 uM by gel electrophoresis. The conditions noted are these: TDE = time-dependent effect.

Data set [2] has as its target T1, DNA topoisomerase 1 (Homo sapiens). Nature of the data set: Inhibition of recombinant human topoisomerase 1-mediated unwinding of supercoiled plasmid DNA assessed as DNA intercalation at 25 uM after 2 hrs by gel electrophoresis.
For data set [3] the target is unchanged. Nature of the data set: Inhibition of recombinant human topoisomerase 1-mediated unwinding of supercoiled plasmid DNA assessed as formation of nicked open circular DNA at 12.5 to 100 uM after 2 hrs by gel electrophoresis.
Data set [4] shares this target. Nature of the data set: Inhibition of recombinant human topoisomerase 1-mediated unwinding of supercoiled plasmid DNA assessed as DNA intercalation at 50 uM after 2 hrs by gel electrophoresis.
Data set [5] has the same target. The experiment in a line: Inhibition of recombinant human topoisomerase 1-mediated unwinding of supercoiled plasmid DNA assessed as DNA intercalation at 100 to 200 uM after 2 hrs by gel electrophoresis.
Data set [6] in a line: Dissociation constant, pKa of the compound. Type of data set: physicochemical.
Data set [7] has as its target T1, DNA topoisomerase 1 (Homo sapiens). Nature of the data set: Inhibition of recombinant human topoisomerase 1-mediated unwinding of supercoiled plasmid DNA assessed as DNA intercalation after 2 hrs by gel electrophoresis.

For `COc1cc(-c2c[nH]c3c(ccn4ccnc34)c2=O)cc(OC)c1OC`, the 50% growth inhibitory concentration (GI50) with HT-1080, in the data set with MCF7, with HT-29 and in the data set on M21 was > 100 µM in each case.
As to `COc1cc(-c2ccc3ccn4ccnc4c3n2)cc(OC)c1OC`, the GI50 is 29.2 µM with HT-1080, 30.7 µM with MCF7, 27.8 µM in the data set with HT-29 and 24.5 µM in the data set with M21. Besides, the inhibition result in [1] was “tde”. In addition, the inhibition result in data set [2] and in [4] was “Active” throughout. In addition, the inhibition entry in [3] was “inactive”.
Consider `Cc1ccc(-c2ccc3ccn4ccnc4c3n2)cc1`, for which the GI50 with HT-1080 is 10.7 µM; with MCF7 it was 7.6 µM; in the data set with HT-29 it was 5.1 µM; with M21 it was 6.4 µM. Also, the inhibition entry in data set [5], in [2] and in data set [4] was “inactive” each time.
With `COc1ccc(-c2ccc3ccn4ccnc4c3n2)cc1`, the concentration for 50% growth inhibition (GI50) in the data set with HT-1080 is 5.2 µM; in the data set with MCF7 it was 6.9 µM; in the data set on HT-29, 5.1 µM; with M21, 5 µM. The inhibition entry in data set [2] and in data set [4] was “Active” throughout.
Regarding `c1ccc2cc3nc4c(ccn5ccnc45)cc3cc2c1`, the pKa in data set [6] stood at 2.43.
For `c1ccc(-c2ccc3ccn4ccnc4c3n2)cc1`, in the data set on HT-1080, the concentration for 50% growth inhibition (GI50) stood at 54.7 µM. Also, in data set [1], the inhibition result was “tde”. Moreover, the pKa in data set [6] came out at 1.96. In addition, the inhibition entry in data set [2] and in data set [4] was “Active” each time. In addition, in data set [3], the inhibition result was “inactive”.
Regarding `Clc1ccc(-c2ccc3ccn4ccnc4c3n2)cc1`, the concentration for 50% growth inhibition (GI50) with HT-1080 was determined as 6.9 µM; in the data set on MCF7 it was 7.1 µM; in the data set on HT-29, 3.4 µM; in the data set on M21 it was 4.7 µM. Also, the inhibition entry in data set [2] and in data set [4] was “Active” in each case.
In the case of `CCOC(=O)c1c[nH]c2c(ccn3cc(-c4cccc(OC)c4)nc23)c1=O`, the concentration for 50% growth inhibition (GI50) with HT-1080, in the data set on MCF7, with HT-29 and with M21 was > 100 µM throughout.
As for `CCOC(=O)c1c[nH]c2ccn3cc(C(C)C)nc3c2c1=O`, the GI50 came out at 22 µM in the data set with HT-1080, 37.3 µM in the data set with MCF7, 43.7 µM with HT-29 and 26.9 µM with M21.
For `CCOC(=O)c1c[nH]c2c(ccn3cc(C(C)C)nc23)c1=O`, in that order: > 100 µM, > 100 µM, > 100 µM and > 100 µM.
As to `CCOC(=O)c1c[nH]c2ccn3cc(C)nc3c2c1=O`, the concentration for 50% growth inhibition (GI50) in the data set with HT-1080 was 72.9 µM; with MCF7 it was 98.5 µM; in the data set with HT-29, 63.2 µM; in the data set on M21 it was 88.5 µM.
In the case of `CCOC(=O)C1CCc2nc3c(ccn4ccnc34)cc2C1` (centres undefined), in data set [6], the pKa is 4.08.
For the molecule `COc1ccc(-c2c[nH]c3c(ccn4ccnc34)c2=O)cc1`, the GI50 with HT-1080, in the data set with MCF7, in the data set with HT-29 and in the data set with M21 was > 100 µM each time.
Consider `Cc1ccc2ccn3ccnc3c2n1`, for which, in data set [6], the pKa is 4.23.
Regarding `CCOC(=O)c1c[nH]c2ccn3cc(-c4ccccc4)nc3c2c1=O`, the GI50 was 10.4 µM with HT-1080, 20.5 µM with MCF7, 21.6 µM in the data set on HT-29 and 13.4 µM in the data set with M21.
As for `CCOC(=O)c1c[nH]c2c(ccn3ccnc23)c1=O`, the GI50 in the data set with HT-1080, with MCF7, in the data set with HT-29 and in the data set with M21 was > 100 µM throughout.
Take `CCBr`: the inhibition result in [7] is “Active”.
`CCOC(=O)c1c[nH]c2ccn3ccnc3c2c1=O`: the GI50 is 0.3 µM in the data set with HT-1080, 0.3 µM in the data set on MCF7, 4.5 µM in the data set on HT-29 and 0.8 µM in the data set on M21. Also, the inhibition entry in [5], in data set [2] and in data set [4] was “inactive” each time.
For `c1ccc2c(c1)CCc1nc3c(ccn4ccnc34)cc1-2`, the pKa in data set [6] was determined as 3.53.
In the case of `CCOC(=O)c1c[nH]c2c(ccn3cc(-c4ccccc4)nc23)c1=O`, the GI50 in the data set with HT-1080, with MCF7, in the data set with HT-29 and in the data set on M21 was > 100 µM each time.
For the molecule `CCOC(=O)c1c[nH]c2c(ccn3cc(C)nc23)c1=O`, the 50% growth inhibitory concentration (GI50) in the data set on HT-1080, in the data set on MCF7, with HT-29 and with M21 was > 100 µM throughout.
With `COc1ccc(-c2c[nH]c3ccn4ccnc4c3c2=O)cc1`, the GI50 amounted to 1.2 µM in the data set on HT-1080, 1.1 µM in the data set on MCF7, 8.6 µM in the data set with HT-29 and 1.3 µM with M21. Besides, the inhibition entry in [5], in [2] and in data set [4] was “inactive” in each case.
Turning to `COc1cc(NS(C)(=O)=O)ccc1Nc1c2ccccc2nc2ccccc12` [AMSACRINE], the GI50 with HT-1080 was 1.6 µM; in the data set with MCF7, 5.6 µM.
As for `CCOC(=O)c1c[nH]c2ccn3cc(-c4cccc(OC)c4)nc3c2c1=O`, the 50% growth inhibitory concentration (GI50) was > 100 µM in the data set on HT-1080, 98 µM in the data set on MCF7, 71.1 µM in the data set on HT-29 and 93.4 µM in the data set on M21.
On to `COc1cc(-c2c[nH]c3ccn4ccnc4c3c2=O)cc(OC)c1OC`, for which the GI50 is 92.5 µM with HT-1080, 71.9 µM in the data set with MCF7, 62.7 µM with HT-29 and 82.7 µM in the data set on M21.
For `O=c1c(-c2ccccc2)c[nH]c2ccn3ccnc3c12`, in that order: 19.7 µM, 20 µM, 34.2 µM and 40.7 µM.
`Cc1cc2ccn3ccnc3c2nc1C` gave a pKa in data set [6] of 4.63.
Molecule `c1cn2ccc3cc4c(nc3c2n1)CCCC4` registered a pKa in data set [6] of 4.59.
As to `c1ccc2c(c1)CCc1cc3ccn4ccnc4c3nc1-2`, the pKa in data set [6] was 2.43.
On to `O=C1CCCc2nc3c(ccn4ccnc34)cc21`, for which the pKa in [6] came out at 2.
For `O=c1c(-c2ccccc2)c[nH]c2c1ccn1ccnc21`, the GI50 with HT-1080, with MCF7, in the data set with HT-29 and with M21 was > 100 µM throughout.
